Measured values as given in patent publication US20240182526A1, “COMPOSITIONS AND METHODS FOR MODULTING INFLAMMATORY AND DEGENERATIVE DISORDER” (University of Southern California, priority 2021, published 2024).
“Also recorded” adds a separate entry of the source.

Legend:
pSTAT3 = experiment: Western blot of pSTAT3 in LIF-treated pig articular chondrocytes; assay type: cell-based; details: 4 and 24 hours
Description: For standard western blot, treated and non-treated cells were lysed in RIPA Lysis and Extraction Buffer (Pierce, Rockford, IL) containing protease inhibitors (Pierce) followed by sonication with a 15-second pulse at a power output of 2 using the VirSonic 100 (SP Industries Company, Warminster, PA). Protein concentrations were determined by BCA protein assay (Pierce). Proteins were resolved with SDS-PAGE utilizing 4-15% Mini-PROTEAN TGX Precast Gels and transferred to Trans-Blot Turbo Transfer Packs with a 0.2-μm pore-size nitrocellulose membrane. The SDS-PAGE running buffer, 4-15% Mini-PROTEAN TGX Precast Gels, Trans-Blot Turbo Transfer Packs with a 0.2-μm pore-size nitrocellulose membrane was purchased from Biorad (Hercules, CA). Nitrocellulose membranes were blocked in 5% nonfat milk in 0.05% (v/v) Tween 20 (PBST) (Corning, Manassas, VA). […] Quantification of blots was performed using ImageJ 1.44 followed by Prism9 for analysis.
Experiments were performed to determine whether R805 is inclined to shift the signaling outputs downstream of gp130 promoting differential regulation similar to genetic ablation of Y814. As a readout, protein levels of phosphorylated SRC, MAPK (ERK 1/2) and NF-κB were measured in response to OSM while STAT3 and YAP1 levels were evaluated in response to LIF.

c-MYC = experiment: Western blot of c-MYC in pig articular chondrocytes; assay type: cell-based
[1] = test system: bearded dragon (Pogona vitticeps) amputated tail; experiment: Lizard tail healing model; assay type: in vivo; details: 14 days post-amputation
Description: Lizard Tail Healing Model. Captive bred and raised bearded dragon lizards (Pogona vitticeps) were maintained at 25.5° C. with 65% humidity on a 12 hr light/12 hr dark schedule with UVB lamp (Zoo Med) treatment during daylight hours. Care and experimental use of lizards was conducted in accordance with Institutional Animal Care and Use Committee (IACUC). Lizard tails were amputated halfway along lengths with scalpels To systemically deplete macrophage populations, lizards received intraperitoneal (IP) injections of L-α-phoshatidylcholine/cholesterol liposomes containing clodronate (0.125 mg/g) as previously described (Londono et al. J Immunol Regen Med. 2020). Control animals were treated with liposomes containing PBS instead of clodronate. Lizards were treated with R805 drug via daily direct injection (1 pmol drug) into amputated tail stumps. Lizard tail samples were collected 14 days following original tail amputation. Collected tail samples were photographed using an Olympus SZX16 stereo microscope. Images were uploaded in ImageJ (NIH, Bethesda MD) and quantified using the measure command. For labeling of proliferating cell populations with 5-ethynyl-2′-deoxyuridine (EdU) (ThermoFisher Scientific), animals received IP injections of EdU (50 mg/kg) four hours prior to sample collection. Samples to be analyzed via histology were fixed overnight in 4% paraformaldehyde, decalcified for 3 weeks in 10% EDTA (pH 7.4), equilibrated to 30% sucrose, embedded in optimal cutting temperature compound (OCT, Tissue-Tek), crypsectioned at 16 μm thickness, mounted on glass slides, and stained with 4′,6-diamidino-2-phenylindole (DAPI). Samples were stained with Masson's trichrome (American Mastertech) according to the manufacturer's instructions or immunostained for CTSK (Abcam antibody ab19027, used at 1:1000). Images were captured with an Olympus CKX41 microscope outfitted with a Keyence BZ-X800 microscope, and the areas of EdU signal were quantified with ImageJ. Statistical analysis was performed using Prism 7 with one or two-way ANOVA with pairwise Tukey's multiple comparison test for data with multiple groups. A p-value of <0.05 was deemed to be statistically significant. All values and graphs are shown as mean±SD.

Structure (SMILES): Cc1ccc(-c2csc(NC(=O)c3ccccn3)n2)cc1 [Peptide R805]
- pSTAT3 downstream of LIF (pSTAT3): minimal inhibitory effect; also recorded: does not affect pro-regenerative signaling downstream of gp130
- protein levels of c-MYC (MYC signaling) (c-MYC): does not activate MYC signaling
- CTSK+ macrophage recruitment to amputation site [1]: exhibited CTSK+ macrophage populations that extended into new tissue areas distal to amputation planes
- proliferating EdU+ cells [1]: significantly higher numbers of proliferating EdU+ wound epithelium and periosteal cells
- tail tissue regrowth under macrophage depletion ([1]; R805 co-treated with clodronate liposomes): co-treatment with clodronate liposomes inhibited R805-induced tissue regrowth
- tail tissue regeneration (gross morphology, Masson's trichrome) ([1]; daily direct injection into amputated tail stump): resulted in tissue regeneration as evidenced by blastema-like structures; also recorded: enhances lizard tail regeneration in a macrophage-dependent manner
